US10875829B1, “Azetidine derivatives useful as modulators of cortical catecholaminergic neurotransmission” (Integrative Research Laboratories Sweden AB, priority 2016, dated 2020)
Structures can show the parent of a compound that is named as a salt. Where two headings read alike, the source gives them in different places. Marks after values point to notes of the source that are not given here.

How the values were obtained:
[1] = biological target: Human Dopamine Transporter (DAT (h)) (Homo sapiens (Human), UniProt Q01959); experiment: Radioligand binding assay, human dopamine transporter ([3H]BTCP); details: 2 h; single concentration 1.0 E-5 M, duplicate, mean values
Experimental: (The measurement was performed as described in Pristuba, Z. B., Wilson, J. M., Hoffman, B. J., Kish, S. J. and Nisnik, H. B. (1994), Pharmacological heterogeneity of the cloned and native human dopamine transporter: disassociation of [3H]WIN 35,428 and [3H]GBR 12,935 binding, Mol. Pharmacol., 45: 125)
Cell membrane homogenates (20 μg protein) are incubated for 120 min at 4° C. with 4 nM
(§1) [3H]BTCP in the absence or presence of the test compound in a buffer containing 50 mM Tris-HCl (pH 7.4) and 100 mM NaCl. Nonspecific binding is determined in the presence of 10 μM BTCP. Following incubation, the samples are filtered rapidly under vacuum through glass fiber filters (GF/B, Packard) presoaked with 0.3% PEI and rinsed several times with ice-cold 50 mM Tris-HCl using a 96-sample cell harvester (Unifilter, Packard). The filters are dried then counted for radioactivity in a scintillation counter (Topcount, Packard) using a scintillation cocktail (Microscint 0, Packard).
(§2) The results are expressed as a percent inhibition of the control radioligand specific binding.
(§3) […] Reported values are mean values.

[2] = biological target: Human Norepinephrine Transporter (NET (h)) (Homo sapiens (Human), UniProt P23975); experiment: Radioligand binding assay, human norepinephrine transporter ([3H]nisoxetine); details: 2 h; single concentration 1.0 E-5 M, duplicate, mean values
Experimental: (The measurement was performed as described in Pacholczyk, T., Blakely, R. D. and Amara, S. G. (1991), Expression cloning of a cocaine- and antidepressant-sensitive human noradrenaline transporter, Nature, 350: 350)
as §1, with “Cell membrane homogenates (20 μg protein) are incubated for 120 min at 4° C. with 1 nM [3H]nisoxetine” for “[3H]BTCP”, “7.4), 120 mM NaCl” for “7.4)”, “5” for “100”, “KCl.” for “NaCl.”, “1” for “10”, “desipramine.” for “BTCP.”
as §2, §3

[3] = biological target: Human 5-HT Transporter (SERT (h)) (Homo sapiens (Human), UniProt P31645); experiment: Radioligand binding assay, human 5-HT transporter ([3H]imipramine); details: 1 h; single concentration 1.0 E-5 M, duplicate, mean values
Experimental: (The measurement was performed as described in Tatsumi, M., Jansen, K., Blakely, R. D. and Richelson, E. (1999), Pharmacological profile of neuroleptics at human monoamine transporters, Eur. J. Pharmacol.
Cell membrane homogenates (12 μg protein) are incubated for 60 min at 22° C. with 2 nM [3H]imipramine in the absence or presence of the test compound in a buffer containing 50 mM Tris-HCl (pH 7.4), 120 mM NaCl, 5 mM KCl and 0.1% BSA.
Nonspecific binding is determined in the presence of 10 μM imipramine.
Following incubation, the samples are filtered rapidly under vacuum through glass fiber filters (GF/B, Packard) presoaked with 0.3% PEI and rinsed several times with an ice-cold buffer containing 50 mM Tris-HCl and 150 mM NaCl using a 96-sample cell harvester (Unifilter, Packard). The filters are dried then counted for radioactivity in a scintillation counter (Topcount, Packard) using a scintillation cocktail (Microscint 0, Packard).
The results are expressed as a percent inhibition of the control radioligand specific binding
as §3

NA, DA and 5-HT = experiment: In vivo brain microdialysis: extracellular monoamines in striatum and frontal cortex; set-up: species or system Sprague-Dawley rats; details: 50 μmol/kg s.c., n=1-3; for response vs control in vivo at 50 µmol/kg: Rattus norvegicus, sc
Excerpt: The microdialysis technique is a well-established technique for measuring extracellular levels of neurotransmitters (Ungerstedt, J Int Med, 1991, 230; 365-73). The microdialysis technique was used to measure the effect of compounds disclosed herein upon the efflux of monoamine transmitters (NA, DA and 5-HT) in striatum and frontal cortex in conscious, freely moving rats.
Male Sprague-Dawley rats weighing 280-320 g were used throughout the experiments. Before the experiment the animals were housed in groups, maximum five animals in each cage, with free access to water and food. The animals were housed at least one week prior to surgery and use in the experiments.
A modified version (Waters et al., J Neural Transm Gen Sect, 1994, 98(1); 39-55) of the !-shaped probe (Santiago and Westerink, N-S Arch Pharmacol, 1990, 342; 407-14) with the AN69 polyacrylonitrile/sodium methyl sulfonate copolymer (HOSPAL; o.d/i.d. 310/220 μm: dialysis membrane (Gambro, Lund, Sweden) was used in the microdialysis experiments. In the dorsal striatum, probes with an exposed length of 3 mm of dialysis membrane were used and in the prefrontal cortex the corresponding length was 2.5 mm. The rats were operated under isoflurane inhalation anesthesia while mounted into a Kopf stereotaxic instrument. Coordinates were calculated relative to bregma; dorsal striatum AP+1.0, ML±2.6, DV 6.2; Pf cortex, AP+3.2, ML±1.2, DV −4.0 8°, according to Paxinos and Watson (New York, Academic Press, 1986; FIG. 8 and FIG. 14). The dialysis probe was positioned in a burr hole under stereotaxic guidance and cemented with phosphatine dental cement (DAB Dental).
The rats were housed individually in cages for 48 h before the dialysis experiments, allowing them to recover from surgery and minimizing the risk of drug interactions with the anesthetics during the following experiments. During this period the rats had free access to food and water. On the day of the experiment the rats were connected to a micro-perfusion pump via a swivel and were replaced in the cage where they could move freely within its confinements. The perfusion medium was a Ringer's solution containing (in mmol/l): NaCl; 140, CaCl2); 1.2, KCl; 3.0, MgCl2; 1.0 (Moghaddam and Bunney. Neurochem., 1989, 53; 652-4). The pump was set to a perfusion speed of 2 μl/min and 40 μl sample volume were collected every 20 min.
The rats were perfused for at least 40 min before sampling began. Five fractions of each 20 min were collected and the last three were used for the establishment of the baseline. After collection of baseline fractions, the pharmacological challenge to the dialysis experiment started. Test compounds were administrated by injection (s.c.) in a volume of 5 ml/kg, with 0.9% NaCl (saline) as vehicle.
The analytical method were based on two chromatographic separations dedicated for amines or acids. Two chromatographic systems shared a common auto injector with a 10-port valve and two sample loops for simultaneous injection on the two systems.
The acids were separated by reversed phase chromatography while the amines were separated by reversed phase ion pairing chromatography preceded by a reverse phase separation in a column switching configuration. Three separation columns (Luna C18 (2), dp 3 μm, 2 mm i.d., Phenomenex) of different lengths were used. Electrochemical detection was accomplished on glassy carbon electrodes (MF-1000, Bioanalytical Systems, Inc.)
The aqueous mobile phase (0.6 ml/min) for the acid system contained citric acid (40 mM, dipotassium hydrogen phosphate 10 mM, methanol 8-11% (v/v) and EDTA 0.1 mM. Column length was 30 mm and detection potential relative to Ag/AgCl reference was 0.74V.
The aqueous ion pairing mobile phase (0.4 ml/min) for the amine system contained citric acid 5 mM, sodium citrate 10 mM, acetone 9% (v/v), tetrahydrofurane 3% (v/v), dodecane sulphonic acid 0.025 mM, and EDTA 0.1 mM. Column length was 50 mm and the preceding column was 20 mm. […]

[4] = frontal cortex, read-out: 5-HT FC, maximum effect compared to baseline ± SEM
[5] = frontal cortex, read-out: DA FC, maximum effect compared to baseline ± SEM
[6] = frontal cortex, read-out: NA FC, maximum effect compared to baseline ± SEM
[7] = striatum, read-out: DA Stri, maximum effect compared to baseline ± SEM
[8] = striatum, read-out: 5-HT Stri, maximum effect compared to baseline ± SEM

Sequence of Human Dopamine Transporter (DAT (h)) (Q01959 whole entry): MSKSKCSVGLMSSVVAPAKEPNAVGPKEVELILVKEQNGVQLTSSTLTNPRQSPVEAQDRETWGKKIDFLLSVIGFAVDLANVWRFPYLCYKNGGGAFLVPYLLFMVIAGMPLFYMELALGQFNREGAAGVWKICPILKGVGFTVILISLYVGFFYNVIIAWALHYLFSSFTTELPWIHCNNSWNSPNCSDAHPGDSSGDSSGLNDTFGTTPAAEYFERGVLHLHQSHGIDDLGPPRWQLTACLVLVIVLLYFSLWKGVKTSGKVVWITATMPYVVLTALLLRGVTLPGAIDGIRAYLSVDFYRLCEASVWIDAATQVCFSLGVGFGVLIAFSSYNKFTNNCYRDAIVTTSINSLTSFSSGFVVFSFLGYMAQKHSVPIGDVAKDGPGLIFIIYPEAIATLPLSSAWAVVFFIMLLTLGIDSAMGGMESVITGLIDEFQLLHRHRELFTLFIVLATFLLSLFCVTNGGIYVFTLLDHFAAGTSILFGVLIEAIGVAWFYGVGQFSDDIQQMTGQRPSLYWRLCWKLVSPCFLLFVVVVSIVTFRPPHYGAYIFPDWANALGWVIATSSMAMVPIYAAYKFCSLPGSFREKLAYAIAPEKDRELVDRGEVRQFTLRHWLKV
Sequence of Human 5-HT Transporter (SERT (h)) (P31645 whole entry): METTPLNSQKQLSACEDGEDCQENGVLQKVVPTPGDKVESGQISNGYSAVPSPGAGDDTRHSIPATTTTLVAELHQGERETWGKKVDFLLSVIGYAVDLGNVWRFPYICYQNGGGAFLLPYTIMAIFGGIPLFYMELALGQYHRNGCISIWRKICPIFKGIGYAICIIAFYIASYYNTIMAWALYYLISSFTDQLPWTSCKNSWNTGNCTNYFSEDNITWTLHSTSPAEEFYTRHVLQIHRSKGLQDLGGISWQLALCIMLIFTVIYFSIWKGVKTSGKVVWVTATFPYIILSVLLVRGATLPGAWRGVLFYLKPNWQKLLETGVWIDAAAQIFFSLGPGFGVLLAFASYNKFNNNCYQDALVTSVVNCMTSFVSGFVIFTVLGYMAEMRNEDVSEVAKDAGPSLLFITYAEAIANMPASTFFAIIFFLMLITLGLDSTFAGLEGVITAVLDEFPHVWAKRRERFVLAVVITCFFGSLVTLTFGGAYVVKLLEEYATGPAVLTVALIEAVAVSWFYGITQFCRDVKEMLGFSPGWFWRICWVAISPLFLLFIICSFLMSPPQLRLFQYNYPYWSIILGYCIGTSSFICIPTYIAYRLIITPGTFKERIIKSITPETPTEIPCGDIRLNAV
Sequence of Human Norepinephrine Transporter (NET (h)) (P23975 whole entry): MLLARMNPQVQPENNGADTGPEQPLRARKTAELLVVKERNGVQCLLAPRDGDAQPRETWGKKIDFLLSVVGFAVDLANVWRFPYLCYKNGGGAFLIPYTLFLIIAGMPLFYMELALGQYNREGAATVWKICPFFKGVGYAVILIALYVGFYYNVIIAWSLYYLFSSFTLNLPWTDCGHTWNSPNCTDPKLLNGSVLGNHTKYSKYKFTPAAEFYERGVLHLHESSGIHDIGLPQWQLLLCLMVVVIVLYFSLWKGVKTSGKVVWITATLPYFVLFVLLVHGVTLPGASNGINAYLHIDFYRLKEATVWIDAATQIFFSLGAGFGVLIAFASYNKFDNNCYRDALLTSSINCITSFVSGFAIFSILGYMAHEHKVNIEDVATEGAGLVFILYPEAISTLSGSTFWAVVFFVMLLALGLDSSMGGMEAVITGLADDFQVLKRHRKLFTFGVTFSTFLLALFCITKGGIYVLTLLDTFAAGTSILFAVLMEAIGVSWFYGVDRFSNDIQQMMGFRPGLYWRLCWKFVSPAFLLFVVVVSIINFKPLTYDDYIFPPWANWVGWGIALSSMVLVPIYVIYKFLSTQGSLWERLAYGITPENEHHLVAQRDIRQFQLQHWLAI

SMILES | inhibition at 10 µM [1] | inhibition at 10 µM [2] | inhibition at 10 µM [3] | response vs control in vivo at 50 µmol/kg (NA, DA and 5-HT; [4]) | response vs control in vivo at 50 µmol/kg (NA, DA and 5-HT; [5]) | response vs control in vivo at 50 µmol/kg (NA, DA and 5-HT; [6]) | response vs control in vivo at 50 µmol/kg (NA, DA and 5-HT; [7]) | NA Stri, maximum effect compared to baseline ± SEM (NA, DA and 5-HT; striatum) | response vs control in vivo at 50 µmol/kg (NA, DA and 5-HT; [8])
Fc1ccc(OC2CNC2)c(F)c1F [Example 10, 3-(2,3,4-trifluoro-phenoxy)azetidine fumaric acid salt] | 15% | -2% | 29% | 709 ± 139% | 466 ± 161% | 799 ± 137% | 126 ± 10% | – | –
CN1CC(Oc2c(F)c(F)cc(F)c2F)C1 [Example 38, 1-methyl-3-(2,3,5,6-tetrafluorophenoxy)azetidine hydrochloric acid salt] | 11% | 6% | -11% | 148 ± 12% | 467 ± 20% | 422 ± 102% | 203 ± 8% | 306 ± 146^a % of control | 205 ± 20%
Fc1c(F)c(F)c(OC2CNC2)c(F)c1F [Example 43, 3-(2,3,4,5,6-pentafluoro-phenoxy)azetidine hydrochloric acid salt] | 11% | -1% | -7.6% | – | – | – | – | – | –
Fc1cc(F)c(OC2CNC2)c(F)c1 [Example 49, 3-(2,4,6-Trifluorophenoxy)azetidine hydrochloric acid salt] | 12% | 6% | 10% | – | 391 ± 131% | 862 ± 437% | 135 ± 2% | 353^b % of control | 573 ± 1%
Fc1cc(OC2CNC2)cc(F)c1F [Example 50, 3-(3,4,5-Trifluorophenoxy)azetidine hydrochloric acid salt] | 17% | 3% | 28% | 752 ± 235% | 787 ± 131% | – | 139 ± 20% | – | 574 ± 45%
Fc1cc(F)c(OC2CNC2)cc1F [Example 51, 3-(2,4,5-Trifluorophenoxy)azetidine hydrochloric acid salt] | 10% | 5% | 25% | 998 ± 470% | 389 ± 134% | 910 ± 389% | 144 ± 4% | 475^b % of control | 663 ± 63%
